Reference: US12031087B2, “Oxygenated solvents for improved production of oil and gas” (Board of Regents, The University of Texas System, priority 2019, dated 2024)

What was measured:
[1] = Coreflooding of fractured cores, vertical (Example 2)
Procedure: Experimental Procedure for Coreflooding. […] The Indiana limestone cores have the common dimensions with a diameter of 0.0254 m and a length of 0.127 m. The cores were saturated with RB first and then oil, during which the core properties were measured, such as porosity, permeability, and water and oil saturations.
It includes an accumulator for crude oil, a pump, a Hassler-type core holder, a hydraulic manual pump to maintain the overburden pressure, a differential pressure gauge, cylinders, and an oven. After a core was placed in the core holder, oil was injected into the cores at 100 cm^3/h and 347 K until no water production was observed.
An artificial fracture was created along the longitudinal axis using an electric saw for each core (FIG. 20). By following the procedure of Mejia, Teflon spacers with 0.001 m in width and 0.127 m in length were placed along two edges of the fracture to maintain a fracture aperture. Then, the core halves were carefully put together with the Teflon spacers in the fracture, wrapped with a Teflon tube, and placed inside a vertically oriented coreholder.
FIG. 21 provides a schematic of the experimental setup for coreflooding. It consists of accumulators for crude oil, RB, and chemical solution (3-pentanone or surfactant), a pump, a Hassler-type core holder, a hydraulic manual pump to maintain the overburden pressure, a differential pressure gauge, cylinders, and an oven. […] After a fractured core was placed in the coreholder, the oven temperature was increased to reservoir temperature (347 K). Then, the core was flooded with crude oil to remove any gas inside the fracture and measure the fracture permeability using the flow rate of 900 cm^3/h. The overburden pressure was adjusted so that all cores used in this research had similar fracture apertures and fracture permeabilities.
Fracture permeabilities were calculated. The equation for flow between parallel plates b=(3πdke)^1/3 was used to estimate a fracture aperture, where b is the fracture aperture, d is the core diameter, and ke is the effective oil permeability of the fractured core. […] Af and Am are cross-sectional areas of the fracture and matrix, respectively. kf and km are permeabilities of the fracture and matrix, respectively.
The initial RB stage was at 6 cm^3/h for 1.5 pore volumes injected (PVI), then at 0.05 cm^3/h for 0.3-0.4 PVI, and at 6 cm^3/h until there was no oil production. After that, a chemical slug (3-pentanone or surfactant) was injected at 0.6 cm^3/h for 1.6 PVI. Finally, the chase RB was injected at 0.6 cm^3/h. […] However, it was terminated after 1.2 PVI of the chase RB for core 1 because of operational constraints.
The coreflood effluent was collected in plastic graduating cylinders at room temperature. To correct the oil recovery factor for 3-pentanone solubility in oil, the 3-pentanone concentration in recovered oil was measured by the proton nuclear magnetic resonance (H NMR) method for the chemical slug and chase RB flooding periods for core 1.

[2] = Coreflooding of fractured cores with 3pRB or pure 3p slug and material balance (Example 3)
Procedure: Experimental Procedure for Coreflooding. Four Texas cream limestone cores were prepared for coreflooding experiments, having a diameter of 0.0254 m and a length of 0.229 m. […] The porosities, permeabilities and water and oil saturations were measured for all cores. […] The system includes two accumulators for oil and RB, a core holder, a manual pump to maintain the overburden pressure, a pressure gauge, a differential pressure gauge, fluid collectors, and an oven. […] Two Teflon strips of 0.001 m in width and 0.229 m in length were placed inside the fracture to keep an aperture of the fracture. The core halves were put together with the Teflon strips in place, and wrapped with a heat-shrinkable Teflon tube. Finally, the core was placed horizontally inside the core holder with the fracture vertically-oriented. FIG. 27 presents a schematic of the setup for the coreflooding experiments. […] After placing a fractured core in the core holder, the oven temperature was set to reservoir temperature (347 K). […] Fracture permeability was measured using a flow rate of 100 cm^3/hr. […] This range was calculated from available data of fracture conductivity, fracture width, and matrix permeability for shale plays. […] The fracture permeability was then calculated from the fracture aperture by the following equation: kf=b^2/12. […] Then, the produced oil for Δt is expressed as -VP2=([…]). […]

[3] = Density and viscosity of 3p, 3pRB and surfactant solution; type: physicochemical; conditions: 347 K and atmospheric pressure

For `CCC(=O)CC` [3-pentanone], which “incremental oil recovery factor, chase RB flooding stage” value ([1]; 1.2 PVI chase RB (terminated), core 1, 347 K) is on record?
Its value is 8.4%.

And the “incremental oil recovery factor, chemical slug stage” value ([1]; 1.6 PVI slug after first RB flood, 1.1 wt % 3-pentanone in RB (core 1) or 1.0 wt % 2-EH-4PO-15EO in RB (core 2), 347 K)?
The value was 30.9%.

What about the “total improved oil recovery” value ([1]; chemical slug + chase RB stages (1.2 PVI chase core 1; 7.0 PVI chase core 2), 347 K) of the same compound?
Its value is 39.3%.

What about the “incremental oil recovery, chase RB after 3p slug” value ([2]; core #3 (Swi=0), after 0.36 PVI) of the same compound?
Its value is 1.1 % OOIP.

What about the “incremental oil recovery, chase RB after 3p slug” value ([2]; core #4 (Swi=0.28), after 1.97 PVI) of the same compound?
The value was 3.7 % OOIP.

And the Density [3]?
Its Density is 760 kg/m^3.
